From PubChem BioAssay AID330 (DTP/NCI, 2004) come the findings set out here.

This test has as its system P388 leukemia ip, CD2F1 mice, survival T/C. Nature of the test: NCI In Vivo Anticancer Drug Screen. Data for tumor model P388 Leukemia (intraperitoneal) in CD2F1 (CDF1) mice. To be noted: endpoint: median survival time, higher = longer survival. In short, it runs like this:
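Mice carrying the transplanted tumor received test compound or vehicle. Survival was recorded in each group, and the value is the treated-group measurement divided by that of the vehicle-treated control group.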

The mark [1] stands for this setting: dose: 50.0 mg/kg/injection, schedule: Q01DX005 (ip), vehicle: saline with Tween-80.
[2] abbreviates: dose: 100.0 mg/kg/injection, schedule: Q01DX005 (ip), vehicle: saline with Tween-80.
Where [3] appears, read: dose: 200.0 mg/kg/injection, schedule: Q01DX005 (ip), vehicle: saline with Tween-80.
Where [4] appears, read: dose: 50.0 mg/kg/injection, schedule: Q01DX009 (ip), vehicle: other.
The mark [5] stands for this setting: dose: 100.0 mg/kg/injection, schedule: Q01DX009 (ip), vehicle: other.
Where [6] appears, read: dose: 200.0 mg/kg/injection, schedule: Q01DX009 (ip), vehicle: other.
The mark [7] stands for this setting: dose: 100.0 mg/kg/injection, schedule: Q01DX009 (ip), vehicle: saline with Tween-80.
[8] abbreviates: dose: 200.0 mg/kg/injection, schedule: Q01DX009 (ip), vehicle: saline with Tween-80.
Setting [9] is: dose: 50.0 mg/kg/injection, schedule: Q01DX005 (ip), vehicle: Klucel (hydroxypropylcellulose) (HPC).
[10] abbreviates: dose: 100.0 mg/kg/injection, schedule: Q01DX005 (ip), vehicle: Klucel (hydroxypropylcellulose) (HPC).
The mark [11] stands for this setting: dose: 200.0 mg/kg/injection, schedule: Q01DX005 (ip), vehicle: Klucel (hydroxypropylcellulose) (HPC).
Where [12] appears, read: dose: 12.5 mg/kg/injection, schedule: Q01DX005 (ip), vehicle: Klucel (hydroxypropylcellulose) (HPC).
Where [13] appears, read: dose: 25.0 mg/kg/injection, schedule: Q01DX005 (ip), vehicle: Klucel (hydroxypropylcellulose) (HPC).

Where “and” joins values, the source holds several entries; their conditions need not be identical. Equal entries are not always repeated. Toxic doses and inconclusive results are not listed.

With `CN(C)C(=S)Oc1cc(-c2c(OC(=S)N(C)C)ccc3ccccc23)c2ccccc2c1`, the T/C was 105 % of control (dose: 100.0 mg/kg/injection, schedule: Q04DX002 (ip), vehicle: saline with Tween-80); 102 % of control (dose: 200.0 mg/kg/injection, schedule: Q04DX002 (ip), vehicle: saline with Tween-80); 96 % of control (dose: 400.0 mg/kg/injection, schedule: Q04DX002 (ip), vehicle: saline with Tween-80).
`Cc1[nH]c2cc(Br)ccc2c1/C=N/NC(N)=S`: the T/C (dose: 100.0 mg/kg/injection, schedule: Q01DX001 (ip), vehicle: Klucel (hydroxypropylcellulose) (HPC)) is 107 % of control.
On to `CCCCCCCCCCN(CCCCCCCCCC)C(C)C(=O)c1ccc2cc(Br)c3ccccc3c2c1` (stereo not drawn), for which the T/C by setting is: under setting [1], 99 % of control; under setting [2], 89 % of control; under setting [3], 104 % of control.
In the case of `CCOC(=O)Nc1cc(OC)cc2ccc(C)nc12`, the T/C was 88 % of control (dose: 12.5 mg/kg/injection, schedule: Q01DX009 (ip), vehicle: other); 98 % of control under setting [4]; 99 % of control under setting [5]; 98 % of control under setting [6].
Turning to `CCOC(=O)C1=NNC(C#N)C1` (stereo not drawn), the T/C is, setting by setting: under setting [1], 101 % of control; under setting [2], 97 % of control; under setting [3], 99 % of control.
Regarding `CN(C)c1ccc(/C=C/c2ccnc3ccccc23)cc1Cl`, the T/C runs as follows: (dose: 12.5 mg/kg/injection, schedule: Q04DX003 (ip), vehicle: saline with Tween-80) 105 % of control; (dose: 25.0 mg/kg/injection, schedule: Q04DX003 (ip), vehicle: saline with Tween-80) 96 % of control; (dose: 50.0 mg/kg/injection, schedule: Q04DX003 (ip), vehicle: saline with Tween-80) 95 % of control.
On to `COc1cc(Br)c(C(=O)N2CCc3cc([N+](=O)[O-])ccc32)cc1OC`, for which the T/C (dose: 25.0 mg/kg/injection, schedule: Q01DX009 (ip), vehicle: other) is 101 % of control; the T/C under setting [4] was 93 % of control; the T/C under setting [5] was 89 % of control; the T/C under setting [6] is 87 % of control.
As to `CC1CN(C(=O)Nc2ccc([N+](=O)[O-])cc2)CC(C)O1` (stereo not drawn), the T/C is, setting by setting: (dose: 50.0 mg/kg/injection, schedule: Q01DX009 (ip), vehicle: saline with Tween-80) 96 % of control; under setting [7], 87 % of control; under setting [8], 89 % of control.
With `O=C1N/C(=N\O)C(F)C(NO)N1` (stereo not drawn), the T/C (dose: 11.25 mg/kg/injection, schedule: Q04DX002 (ip), vehicle: distilled water + Tween-80) is 94 % of control; the T/C (dose: 22.5 mg/kg/injection, schedule: Q04DX002 (ip), vehicle: distilled water + Tween-80) is 103 % of control; the T/C (dose: 45.0 mg/kg/injection, schedule: Q04DX002 (ip), vehicle: distilled water + Tween-80) was 99 % of control; the T/C (dose: 90.0 mg/kg/injection, schedule: Q04DX002 (ip), vehicle: distilled water + Tween-80) is 103 % of control; the T/C (dose: 180.0 mg/kg/injection, schedule: Q04DX002 (ip), vehicle: distilled water + Tween-80) was 93 % of control; the T/C (dose: 360.0 mg/kg/injection, schedule: Q04DX002 (ip), vehicle: distilled water + Tween-80) is 93 % of control.
For `C=C1CC2(OC1=O)C(C1COC(C)(C)O1)OC1OC(C)(C)OC12` (stereo not drawn), the T/C is 96 % of control (dose: 25.0 mg/kg/injection, schedule: Q04DX002 (ip), vehicle: saline); 105 % of control under setting [1]; 99 % of control (dose: 50.0 mg/kg/injection, schedule: Q04DX002 (ip), vehicle: saline); 110 % of control under setting [2]; 104 % of control (dose: 100.0 mg/kg/injection, schedule: Q04DX002 (ip), vehicle: saline); 105 % of control under setting [3].
For the compound `CCOC(=O)NC(=S)c1cccn1C`, the T/C runs as follows: under setting [9], 98 % of control; under setting [10], 103 % of control; under setting [11], 105 % of control.
The corresponding values for `CS(=O)(=O)OC1C(COC(=O)c2ccccc2)OC2C1Oc1nc(=O)ccn12` (stereo not drawn) are 98 % of control, 99 % of control and 101 % of control.
Turning to `C=C1C(=O)OC2CC3(C)OC3CC(O)/C(C)=C/C(OC(=O)C(C)C)C12` (stereo not drawn), the T/C is 110 % of control (dose: 6.25 mg/kg/injection, schedule: Q01DX009 (ip), vehicle: saline); 112 % of control (dose: 12.5 mg/kg/injection, schedule: Q01DX009 (ip), vehicle: saline); 121 % of control (dose: 25.0 mg/kg/injection, schedule: Q01DX009 (ip), vehicle: saline).
For the compound `CC1CN1P(=O)(N1CC1C)N1CC1C` (stereo not drawn), the T/C reads like this: (dose: 3.13 mg/kg/injection, schedule: Q04DX003 (ip), vehicle: saline) 104 % of control; (dose: 6.25 mg/kg/injection, schedule: Q04DX003 (ip), vehicle: saline) 109 % of control; (dose: 12.5 mg/kg/injection, schedule: Q04DX003 (ip), vehicle: saline) 109 % of control; (dose: 50.0 mg/kg/injection, schedule: Q04DX003 (ip), vehicle: saline) 222 % of control; (dose: 100.0 mg/kg/injection, schedule: Q04DX003 (ip), vehicle: saline) 86 % of control.
In the case of `CCOC(=O)c1cc(=O)n(C)c2ccc(OCC)cc12`, the T/C was 90 % of control under setting [7]; 95 % of control under setting [8]; 90 % of control (dose: 400.0 mg/kg/injection, schedule: Q01DX009 (ip), vehicle: saline with Tween-80).
Regarding `N#CCc1ccccc1-c1ccccc1`, the T/C reads like this: under setting [12], 99 % of control; under setting [13], 94 % of control; under setting [9], 99 % of control.
For `Cc1cc(C)nc(NS(=O)(=O)c2ccc(N=Cc3c4ccccc4nc4cc(Cl)ccc34)cc2)n1`, the T/C is 93 % of control under setting [1], 93 % of control under setting [2] and 93 % of control under setting [3].
`CCOC(=O)c1ccc2c(c1)nc(-c1ccccn1)n2CCc1ccccn1`: the T/C reads like this: under setting [13], 100 % of control and 102 % of control; under setting [9], 98 % of control; under setting [10], 100 % of control and 107 % of control; under setting [11], 109 % of control and 110 % of control.
On to `O=C(NC(=S)Nc1c(Cl)cccc1Cl)c1cccc(Cl)c1`, for which the T/C was 106 % of control under setting [12], 92 % of control under setting [13] and 94 % of control under setting [9].
Consider `Nc1ccccc1C(=O)CCc1ccccc1`, for which the T/C by setting is: (dose: 60.0 mg/kg/injection, schedule: Q01DX005 (ip), vehicle: saline with Tween-80) 100 % of control; (dose: 120.0 mg/kg/injection, schedule: Q01DX005 (ip), vehicle: saline with Tween-80) 99 % of control; (dose: 240.0 mg/kg/injection, schedule: Q01DX005 (ip), vehicle: saline with Tween-80) 97 % of control.
Turning to `Cc1cc(Nc2ccc(N(CCCl)CCCl)cc2)c(C)cc1O`, the T/C (dose: 200.0 mg/kg/injection, schedule: Q04DX003 (ip), vehicle: Klucel (hydroxypropylcellulose) (HPC)) was 159 % of control.
With `OC1CC2CCCCC2CC1Cl` (stereo not drawn), the T/C is 90 % of control (dose: 50.0 mg/kg/injection, schedule: Q01DX009 (ip), vehicle: Klucel (hydroxypropylcellulose) (HPC)); 100 % of control (dose: 100.0 mg/kg/injection, schedule: Q01DX009 (ip), vehicle: Klucel (hydroxypropylcellulose) (HPC)); 100 % of control (dose: 200.0 mg/kg/injection, schedule: Q01DX009 (ip), vehicle: Klucel (hydroxypropylcellulose) (HPC)).
In the case of `CCCCCCC(O)CCCCCCCCCCC(N)=O` (stereo not drawn), the T/C reads like this: (dose: 6.25 mg/kg/injection, schedule: Q01DX005 (ip), vehicle: Klucel (hydroxypropylcellulose) (HPC)) 99 % of control; under setting [12], 96 % of control; under setting [13], 94 % of control.
In the case of `O=NN(C(=O)NC1CCC(C(=O)O)CC1)C1CCC(C(=O)O)CC1` (stereo not drawn), the T/C was 93 % of control (dose: 25.0 mg/kg/injection, schedule: Q01DX001 (ip), vehicle: distilled water + Tween-80); 93 % of control (dose: 50.0 mg/kg/injection, schedule: Q01DX001 (ip), vehicle: distilled water + Tween-80); 93 % of control (dose: 100.0 mg/kg/injection, schedule: Q01DX001 (ip), vehicle: distilled water + Tween-80); 101 % of control (dose: 200.0 mg/kg/injection, schedule: Q01DX001 (ip), vehicle: distilled water + Tween-80).
`COC(=O)COc1cc2c(cc1C(C)c1ccc(O)cc1)OCO2` (stereo not drawn): the T/C is, setting by setting: under setting [1], 100 % of control; under setting [2], 102 % of control; under setting [3], 90 % of control.
